Assay results as given in paper PMC11850817 (Scientific Reports, 2025).

How the values were obtained:
AsPC-1 cells [1] = assay: Apoptosis by Hoechst 33,258 staining; type: cell-based, human; conditions: AsPC-1, 10 and 30 µM, 48 h
AKT1 = AKT1 (Homo sapiens, UniProt P31749); assay: Radiometric kinase assay; type: biochemical; conditions: read-out: Kinase inhibition (%) AKT1
AKT2 = AKT2 (Homo sapiens, UniProt P31751); assay: Radiometric kinase assay; type: biochemical; conditions: read-out: Kinase inhibition (%) AKT2
Chain of AKT2 (P31751 whole entry): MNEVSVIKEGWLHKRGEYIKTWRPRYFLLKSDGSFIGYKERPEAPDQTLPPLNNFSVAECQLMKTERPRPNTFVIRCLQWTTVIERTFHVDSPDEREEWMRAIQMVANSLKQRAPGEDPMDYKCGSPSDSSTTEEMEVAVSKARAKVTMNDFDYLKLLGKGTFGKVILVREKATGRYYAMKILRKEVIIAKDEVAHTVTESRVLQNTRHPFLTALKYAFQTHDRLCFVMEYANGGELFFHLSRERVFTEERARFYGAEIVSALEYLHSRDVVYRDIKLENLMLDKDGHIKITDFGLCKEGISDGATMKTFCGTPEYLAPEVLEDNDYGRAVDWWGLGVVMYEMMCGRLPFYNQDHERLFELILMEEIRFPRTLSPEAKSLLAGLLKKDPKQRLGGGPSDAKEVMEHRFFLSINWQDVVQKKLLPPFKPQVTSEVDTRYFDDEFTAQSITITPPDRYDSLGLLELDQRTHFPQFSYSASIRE

WEE1 = WEE1 (Homo sapiens, UniProt P30291); assay: Radiometric kinase assay; type: biochemical; conditions: read-out: Kinase inhibition (%) WEE1
AsPC-1 = assay: MTT antiproliferative assay, AsPC-1; type: cell-based, human; conditions: Homo sapiens, ASPC1, 72 h, read-out: IC50 AsPC-1
AXL = target: T1, AXL (Homo sapiens, UniProt P30530); assay: Radiometric kinase assay; type: biochemical; conditions: read-out: Kinase inhibition (%) AXL
T1 sequence (P30530 26-894): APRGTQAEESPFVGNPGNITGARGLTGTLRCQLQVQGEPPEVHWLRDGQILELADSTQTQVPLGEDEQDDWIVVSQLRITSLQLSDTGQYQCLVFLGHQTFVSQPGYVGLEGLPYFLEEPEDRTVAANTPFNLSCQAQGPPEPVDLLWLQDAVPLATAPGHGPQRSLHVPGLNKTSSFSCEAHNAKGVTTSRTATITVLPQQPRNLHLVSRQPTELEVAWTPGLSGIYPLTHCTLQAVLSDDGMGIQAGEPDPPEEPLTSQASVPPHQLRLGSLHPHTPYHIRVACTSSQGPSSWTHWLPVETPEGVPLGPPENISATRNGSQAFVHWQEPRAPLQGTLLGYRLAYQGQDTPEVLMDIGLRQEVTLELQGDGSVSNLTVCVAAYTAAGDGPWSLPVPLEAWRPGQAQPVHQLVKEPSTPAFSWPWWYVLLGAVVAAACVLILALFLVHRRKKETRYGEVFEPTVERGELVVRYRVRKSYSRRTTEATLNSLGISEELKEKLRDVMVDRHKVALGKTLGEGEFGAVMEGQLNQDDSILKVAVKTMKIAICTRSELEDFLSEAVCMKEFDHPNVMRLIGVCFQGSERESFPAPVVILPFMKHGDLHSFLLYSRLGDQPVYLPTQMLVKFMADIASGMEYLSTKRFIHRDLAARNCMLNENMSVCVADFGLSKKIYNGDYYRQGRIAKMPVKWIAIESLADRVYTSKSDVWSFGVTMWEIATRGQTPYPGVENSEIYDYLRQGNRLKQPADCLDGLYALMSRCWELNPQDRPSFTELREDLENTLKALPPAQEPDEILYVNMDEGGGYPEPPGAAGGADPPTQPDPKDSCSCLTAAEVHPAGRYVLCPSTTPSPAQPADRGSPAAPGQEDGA

ERBB2 (Her-2) = ERBB2 (Her-2) (Homo sapiens, UniProt P04626); assay: Radiometric kinase assay; type: biochemical; conditions: read-out: Kinase inhibition (%) ERBB2 (Her-2)
CDK2/cyclin A = CDK2/cyclin A (Homo sapiens, UniProt P24941); assay: Radiometric kinase assay; type: biochemical; conditions: for inhibition at 10 µM: read-out: Kinase inhibition (%) CDK2/cyclin A
AURKA = AURKA (Homo sapiens, UniProt O14965); assay: Radiometric kinase assay; type: biochemical; conditions: read-out: Kinase inhibition (%) AURKA
NIH3T3 = assay: MTT assay, NIH3T3 non-cancer cell line; type: cell-based; conditions: Mus musculus, NIH3T3, 72 h, read-out: IC50 NIH3T3
IGF1R = IGF1R (Homo sapiens, UniProt P08069); assay: Radiometric kinase assay; type: biochemical; conditions: read-out: Kinase inhibition (%) IGF1R
ROS1 = ROS1 (Homo sapiens, UniProt P08922); assay: Radiometric kinase assay; type: biochemical; conditions: read-out: Kinase inhibition (%) ROS1
KDR (VEGFR2) = KDR (VEGFR2) (Homo sapiens, UniProt P35968); assay: Radiometric kinase assay; type: biochemical; conditions: read-out: Kinase inhibition (%) KDR (VEGFR2)
ALK = ALK (Homo sapiens, UniProt Q9UM73); assay: Radiometric kinase assay; type: biochemical; conditions: read-out: Kinase inhibition (%) ALK
ABL1 = ABL1 (Homo sapiens, UniProt P00519); assay: Radiometric kinase assay; type: biochemical; conditions: read-out: Kinase inhibition (%) ABL1
FLT1 (VEGFR1) = FLT1 (VEGFR1) (Homo sapiens, UniProt P17948); assay: Radiometric kinase assay; type: biochemical; conditions: read-out: Kinase inhibition (%) FLT1 (VEGFR1)
Chain of FLT1 (VEGFR1) (P17948 27-1338): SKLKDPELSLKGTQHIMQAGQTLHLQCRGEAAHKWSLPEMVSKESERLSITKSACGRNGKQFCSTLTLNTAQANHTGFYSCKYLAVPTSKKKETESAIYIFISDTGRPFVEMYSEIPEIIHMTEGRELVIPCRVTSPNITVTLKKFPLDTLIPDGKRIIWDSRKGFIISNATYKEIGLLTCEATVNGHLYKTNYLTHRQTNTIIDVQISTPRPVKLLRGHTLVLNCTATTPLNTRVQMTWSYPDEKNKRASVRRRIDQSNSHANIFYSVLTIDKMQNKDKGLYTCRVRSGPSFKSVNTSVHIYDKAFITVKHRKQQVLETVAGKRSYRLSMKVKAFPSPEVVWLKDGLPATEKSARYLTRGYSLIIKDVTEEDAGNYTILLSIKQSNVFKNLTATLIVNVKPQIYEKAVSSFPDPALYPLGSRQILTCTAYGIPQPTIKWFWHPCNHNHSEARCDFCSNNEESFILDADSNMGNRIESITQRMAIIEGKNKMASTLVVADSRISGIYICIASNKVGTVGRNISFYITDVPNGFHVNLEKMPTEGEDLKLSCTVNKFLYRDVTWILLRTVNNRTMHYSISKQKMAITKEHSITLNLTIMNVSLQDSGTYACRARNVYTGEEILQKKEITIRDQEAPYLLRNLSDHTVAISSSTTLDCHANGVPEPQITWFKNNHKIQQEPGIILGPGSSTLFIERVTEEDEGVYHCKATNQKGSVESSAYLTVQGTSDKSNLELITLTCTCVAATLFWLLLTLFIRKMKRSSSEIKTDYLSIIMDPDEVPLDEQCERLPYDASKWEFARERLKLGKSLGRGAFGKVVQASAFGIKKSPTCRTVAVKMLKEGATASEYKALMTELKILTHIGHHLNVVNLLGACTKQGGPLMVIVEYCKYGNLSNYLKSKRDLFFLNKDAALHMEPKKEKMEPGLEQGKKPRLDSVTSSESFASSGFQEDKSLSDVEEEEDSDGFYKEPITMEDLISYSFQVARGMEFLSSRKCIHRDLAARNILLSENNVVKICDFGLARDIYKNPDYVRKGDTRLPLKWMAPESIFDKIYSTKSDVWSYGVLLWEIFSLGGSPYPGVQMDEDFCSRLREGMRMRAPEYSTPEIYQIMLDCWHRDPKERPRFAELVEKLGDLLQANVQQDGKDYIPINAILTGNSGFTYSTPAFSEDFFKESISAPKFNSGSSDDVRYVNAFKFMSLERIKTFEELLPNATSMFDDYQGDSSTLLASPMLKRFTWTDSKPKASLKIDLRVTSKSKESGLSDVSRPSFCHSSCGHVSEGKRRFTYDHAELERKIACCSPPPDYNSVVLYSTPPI

FGFR1 = FGFR1 (Homo sapiens, UniProt P11362); assay: Radiometric kinase assay; type: biochemical; conditions: read-out: Kinase inhibition (%) FGFR1
Chain of FGFR1 (P11362 22-822): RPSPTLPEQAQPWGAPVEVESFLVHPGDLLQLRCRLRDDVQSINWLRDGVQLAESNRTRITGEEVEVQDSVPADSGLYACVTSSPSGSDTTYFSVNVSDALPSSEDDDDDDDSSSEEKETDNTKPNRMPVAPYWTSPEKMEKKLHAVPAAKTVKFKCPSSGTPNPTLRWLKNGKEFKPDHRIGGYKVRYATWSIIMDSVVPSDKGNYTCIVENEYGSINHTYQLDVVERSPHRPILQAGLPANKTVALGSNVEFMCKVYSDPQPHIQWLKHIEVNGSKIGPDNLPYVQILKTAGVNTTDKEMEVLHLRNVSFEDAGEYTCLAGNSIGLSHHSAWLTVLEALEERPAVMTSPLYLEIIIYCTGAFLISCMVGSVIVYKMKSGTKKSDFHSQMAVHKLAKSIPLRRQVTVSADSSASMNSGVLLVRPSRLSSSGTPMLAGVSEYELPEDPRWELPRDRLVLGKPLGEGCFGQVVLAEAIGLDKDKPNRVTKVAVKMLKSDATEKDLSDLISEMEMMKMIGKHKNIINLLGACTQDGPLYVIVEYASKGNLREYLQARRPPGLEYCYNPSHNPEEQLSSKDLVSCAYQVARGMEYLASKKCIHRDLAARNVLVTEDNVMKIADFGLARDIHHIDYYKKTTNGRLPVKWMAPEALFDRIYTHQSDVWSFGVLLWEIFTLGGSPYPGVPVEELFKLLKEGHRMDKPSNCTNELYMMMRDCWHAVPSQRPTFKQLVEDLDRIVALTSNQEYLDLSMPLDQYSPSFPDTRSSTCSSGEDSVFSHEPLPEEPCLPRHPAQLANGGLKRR

PDGFRB (PDGFRβ) = PDGFRB (PDGFRβ) (Homo sapiens, UniProt P09619); assay: Radiometric kinase assay; type: biochemical; conditions: read-out: Kinase inhibition (%) PDGFRB (PDGFRβ)
BRAF = BRAF (Homo sapiens, UniProt P15056); assay: Radiometric kinase assay; type: biochemical; conditions: read-out: Kinase inhibition (%) BRAF
NTRK1 (TrkA) = NTRK1 (TrkA) (Homo sapiens, UniProt P04629); assay: Radiometric kinase assay; type: biochemical; conditions: read-out: Kinase inhibition (%) NTRK1 (TrkA)
PDGFRA (PDGFRα) = PDGFRA (PDGFRα) (Homo sapiens, UniProt P16234); assay: Radiometric kinase assay; type: biochemical; conditions: for inhibition at 10 µM: read-out: Kinase inhibition (%) PDGFRA (PDGFRα)
Chain of PDGFRA (PDGFRα) (P16234 24-1089): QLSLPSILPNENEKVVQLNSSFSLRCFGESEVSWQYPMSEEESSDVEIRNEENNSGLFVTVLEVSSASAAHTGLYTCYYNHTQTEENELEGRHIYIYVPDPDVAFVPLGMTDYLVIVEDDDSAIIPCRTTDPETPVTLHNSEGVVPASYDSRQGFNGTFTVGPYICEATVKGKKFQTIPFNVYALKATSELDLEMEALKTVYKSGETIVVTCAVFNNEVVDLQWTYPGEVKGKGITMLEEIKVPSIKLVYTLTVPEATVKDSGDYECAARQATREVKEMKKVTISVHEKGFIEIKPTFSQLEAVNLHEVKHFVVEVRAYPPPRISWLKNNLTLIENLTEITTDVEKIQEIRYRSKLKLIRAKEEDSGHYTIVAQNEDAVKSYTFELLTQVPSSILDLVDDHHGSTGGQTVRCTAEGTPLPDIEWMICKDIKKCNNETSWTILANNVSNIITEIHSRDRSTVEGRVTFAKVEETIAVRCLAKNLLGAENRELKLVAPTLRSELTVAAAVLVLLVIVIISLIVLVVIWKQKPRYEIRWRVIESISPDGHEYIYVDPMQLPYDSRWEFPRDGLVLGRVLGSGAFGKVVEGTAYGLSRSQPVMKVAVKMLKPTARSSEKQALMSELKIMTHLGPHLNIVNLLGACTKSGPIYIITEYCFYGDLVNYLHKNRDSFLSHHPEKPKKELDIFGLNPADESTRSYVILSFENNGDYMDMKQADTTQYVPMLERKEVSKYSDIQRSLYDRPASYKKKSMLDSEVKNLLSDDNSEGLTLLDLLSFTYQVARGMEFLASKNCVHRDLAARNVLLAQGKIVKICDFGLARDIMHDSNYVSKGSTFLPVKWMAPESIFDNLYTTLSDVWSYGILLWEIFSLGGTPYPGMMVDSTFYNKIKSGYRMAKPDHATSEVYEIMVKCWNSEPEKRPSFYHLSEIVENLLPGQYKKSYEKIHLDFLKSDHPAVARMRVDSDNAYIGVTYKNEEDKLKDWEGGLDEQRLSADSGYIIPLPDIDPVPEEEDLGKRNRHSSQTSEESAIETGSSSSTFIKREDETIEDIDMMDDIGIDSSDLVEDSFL

CDK6/cyclinD3 = CDK6/cyclinD3 (Homo sapiens, UniProt Q00534); assay: Radiometric kinase assay; type: biochemical; conditions: read-out: Kinase inhibition (%) CDK6/cyclinD3
AsPC-1 cells [2] = assay: Cell cycle test, RNase/PI flow cytometry; type: cell-based, human; conditions: AsPC-1, 3, 10, 30, 50 µM, 48 h
KIT (c-Kit) = KIT (c-Kit) (Homo sapiens, UniProt P10721); assay: Radiometric kinase assay; type: biochemical; conditions: read-out: Kinase inhibition (%) KIT (c-Kit)
Chain of KIT (c-Kit) (P10721 26-976): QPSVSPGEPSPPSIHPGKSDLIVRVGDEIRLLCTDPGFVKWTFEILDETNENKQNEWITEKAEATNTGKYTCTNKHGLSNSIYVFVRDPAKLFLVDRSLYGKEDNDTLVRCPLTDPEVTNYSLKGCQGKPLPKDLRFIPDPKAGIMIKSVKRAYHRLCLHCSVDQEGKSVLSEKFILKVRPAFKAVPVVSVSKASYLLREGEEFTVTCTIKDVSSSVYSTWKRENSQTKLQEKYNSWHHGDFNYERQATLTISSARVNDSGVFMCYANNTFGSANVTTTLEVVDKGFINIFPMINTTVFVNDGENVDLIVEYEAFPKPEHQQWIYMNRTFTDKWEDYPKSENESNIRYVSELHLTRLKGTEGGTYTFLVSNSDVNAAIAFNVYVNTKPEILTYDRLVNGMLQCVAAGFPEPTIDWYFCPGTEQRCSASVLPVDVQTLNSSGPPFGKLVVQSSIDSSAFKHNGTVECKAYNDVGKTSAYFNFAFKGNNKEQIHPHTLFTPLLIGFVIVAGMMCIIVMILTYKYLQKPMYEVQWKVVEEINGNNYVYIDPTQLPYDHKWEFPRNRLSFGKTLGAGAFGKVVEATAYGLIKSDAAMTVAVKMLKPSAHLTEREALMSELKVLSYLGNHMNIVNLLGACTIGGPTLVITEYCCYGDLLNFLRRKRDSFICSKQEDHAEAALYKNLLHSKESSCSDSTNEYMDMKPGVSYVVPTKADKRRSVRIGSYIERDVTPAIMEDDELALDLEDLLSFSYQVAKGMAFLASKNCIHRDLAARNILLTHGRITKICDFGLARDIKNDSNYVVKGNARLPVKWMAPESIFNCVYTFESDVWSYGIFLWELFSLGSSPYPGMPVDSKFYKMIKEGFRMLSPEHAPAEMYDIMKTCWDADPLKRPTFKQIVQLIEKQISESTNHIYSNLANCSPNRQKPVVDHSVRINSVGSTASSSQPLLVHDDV

Mia-Paca-2 = assay: MTT antiproliferative assay, Mia-Paca-2; type: cell-based, human; conditions: Homo sapiens, MIA PaCa-2, 72 h, read-out: IC50 Mia-Paca-2
HT-29 = assay: MTT antiproliferative assay, HT-29; type: cell-based, human; conditions: Homo sapiens, HT-29, 72 h, read-out: IC50 HT-29
MCF-7 = assay: MTT antiproliferative assay, MCF-7; type: cell-based, human; conditions: Homo sapiens, MCF7, 72 h, read-out: IC50 MCF-7
FLT4 (VEGFR3) = FLT4 (VEGFR3) (Homo sapiens, UniProt P35916); assay: Radiometric kinase assay; type: biochemical
EBC-1 = assay: MTT antiproliferative assay, EBC-1; type: cell-based, human; conditions: Homo sapiens, EBC-1, 72 h, read-out: IC50 EBC-1
MAP2K1 = MAP2K1 (Homo sapiens, UniProt Q02750); assay: Radiometric kinase assay; type: biochemical; conditions: read-out: Kinase inhibition (%) MAP2K1
CHEK1 = CHEK1 (Homo sapiens, UniProt O14757); assay: Radiometric kinase assay; type: biochemical; conditions: read-out: Kinase inhibition (%) CHEK1
EGFR = EGFR (Homo sapiens, UniProt P00533); assay: Radiometric kinase assay; type: biochemical; conditions: read-out: Kinase inhibition (%) EGFR
PIK3CA = PIK3CA (Homo sapiens, UniProt P42336); assay: Radiometric kinase assay; type: biochemical; conditions: read-out: Kinase inhibition (%) PIK3CA
NTRK3 (TrkC) = NTRK3 (TrkC) (Homo sapiens, UniProt Q16288); assay: Radiometric kinase assay; type: biochemical; conditions: read-out: Kinase inhibition (%) NTRK3 (TrkC)
MET = MET (Homo sapiens, UniProt P08581); assay: Radiometric kinase assay; type: biochemical; conditions: read-out: Kinase inhibition (%) MET
NTRK2 (TrkB) = NTRK2 (TrkB) (Homo sapiens, UniProt Q16620); assay: Radiometric kinase assay; type: biochemical; conditions: read-out: Kinase inhibition (%) NTRK2 (TrkB)
FLT3 = FLT3 (Homo sapiens, UniProt P36888); assay: Radiometric kinase assay; type: biochemical; conditions: read-out: Kinase inhibition (%) FLT3

Chain of AKT1 (P31749 whole entry): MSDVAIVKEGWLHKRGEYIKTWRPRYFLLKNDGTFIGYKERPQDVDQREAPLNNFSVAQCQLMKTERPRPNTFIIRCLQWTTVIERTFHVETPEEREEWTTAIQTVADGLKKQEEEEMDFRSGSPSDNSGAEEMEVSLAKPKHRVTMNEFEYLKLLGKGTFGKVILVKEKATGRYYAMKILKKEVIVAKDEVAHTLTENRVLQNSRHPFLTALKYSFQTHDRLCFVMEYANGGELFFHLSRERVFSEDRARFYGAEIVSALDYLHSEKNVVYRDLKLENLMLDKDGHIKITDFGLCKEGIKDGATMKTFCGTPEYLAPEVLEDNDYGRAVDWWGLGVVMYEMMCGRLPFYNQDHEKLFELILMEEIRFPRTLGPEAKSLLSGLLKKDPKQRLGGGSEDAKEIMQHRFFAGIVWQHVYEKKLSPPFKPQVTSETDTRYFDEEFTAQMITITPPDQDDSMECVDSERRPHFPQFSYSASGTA

Row | inhibition at 10 µM (AKT1) | inhibition at 10 µM (AKT2) | IC50 (AsPC-1) | inhibition at 10 µM (AXL) | inhibition at 10 µM (CDK2/cyclin A) | inhibition at 10 µM (KDR (VEGFR2)) | inhibition at 10 µM (ALK) | inhibition at 10 µM (ABL1) | inhibition at 10 µM (FLT1 (VEGFR1)) | inhibition at 10 µM (FGFR1) | inhibition at 10 µM (PDGFRB (PDGFRβ)) | inhibition at 10 µM (NTRK1 (TrkA)) | inhibition at 10 µM (PDGFRA (PDGFRα)) | inhibition at 10 µM (KIT (c-Kit)) | IC50 (Mia-Paca-2) | IC50 (HT-29) | IC50 (MCF-7) | inhibition at 10 µM (EGFR) | SMILES | IC50 (NIH3T3) | IC50 (EBC-1) | other results
1 | 19% | 25% | 23.5 ± 5.8 µM | 14% | 73% | 20% | 16% | 7% | -16% | 14% | 16% | 43% | 71% | 1% | > 100 µM | 21.9 ± 3.9 µM | > 100 µM | -5% | O=C1C=C(Nc2ccc(OCc3cn(Cc4ccccc4)nn3)cc2)C(=O)c2ccccc21 [Compound 4a, 2-((4-((1-Benzyl-1H-1,2,3-triazol-4-yl)methoxy)phenyl)amino)naphthalene-1,4-dione] | 85.5 ± 19.6 µM | 5.1 ± 1.2 µM | Apoptosis induction (nuclear morphology) (AsPC-1 cells [1]): characteristic features of apoptosis including densely packed chromatin within the nucleus as well as nuclear fragmentation; inhibition at 10 µM (WEE1): 6%; inhibition at 10 µM (ERBB2 (Her-2)): 3%; IC50 (CDK2/cyclin A): 1.67 ± 0.115 µM; inhibition at 10 µM (AURKA): -3%; inhibition at 10 µM (IGF1R): -3%; inhibition at 10 µM (ROS1): -6%; inhibition at 10 µM (BRAF): 3%; IC50 (PDGFRA (PDGFRα)): 0.629 ± 0.087 µM; inhibition at 10 µM (CDK6/cyclinD3): 9%; Effect on cell cycle distribution (S and G2/M phases) (AsPC-1 cells [2]): dose-dependently increased the number of cells in the S phase and simultaneously reduced the cells in G2/M phase; IC50 (FLT4 (VEGFR3)): 0.554 ± 0.002 µM; inhibition at 10 µM (FLT4 (VEGFR3); read-out: Kinase inhibition (%) FLT4 (VEGFR3)): 87%; inhibition at 10 µM (MAP2K1): 9%; inhibition at 10 µM (CHEK1): -20%; inhibition at 10 µM (PIK3CA): 14%; inhibition at 10 µM (NTRK3 (TrkC)): 40%
2 | 9% | -10% | 30.7 ± 2.2 µM | 5% | 32% | -19% | 2% | 2% | -17% | 1% | 17% | 4% | 37% | -9% | 1.3 ± 0.4 µM | 56.9 ± 4.3 µM | > 100 µM | -9% | O=C1C=C(Nc2ccc(OCc3cn(Cc4ccc(Br)cc4)nn3)cc2)C(=O)c2ccccc21 [Compound 4b, 2-((4-((1-(4-Bromobenzyl)−1H-1,2,3-triazol-4 yl)methoxy)phenyl)amino) naphthalene-1,4-dione] | 50.9 ± 8.8 µM | 2 ± 1.2 µM | inhibition at 10 µM (MET): -8%; inhibition at 10 µM (NTRK2 (TrkB)): 13%; inhibition at 10 µM (FLT3): -3%
